Laboratory results from patent US6352714B1, “Method of producing a metal nutrient for an animal feed” (DER, Inc., priority 2000, dated 2002).

Test system: nursery pigs
Test: Chromium supplementation feeding study in nursery pigs (growth performance)
Assay type: in vivo
Details: diet with 400 ppb chromium
Excerpt: A study was made to determine the effects of chromium leather hydrolysate supplementation in nursery pigs, as compared with other complexes, namely chromium picolinate and a yeast chromium complex. In this study, three groups of forty pigs each, with a mean weaning age of 17.6 days, were fed diets containing the chromium leather hydrolysate proteinate, chromium tripicolinate, or yeast chromium complex. In addition, a control group of forty pigs were not fed a supplement. In all cases, the chromium containing complex contained 400 ppb of chromium. Data relating to the average daily gains were obtained over three phases with Phase I being 0-7 days, Phase II being 8-14 days, and Phase III being 15-21 days.
In the above Table, ADG is “average daily gain” and ADFI is “average daily feed intake”.

chromium tripicolinate [Chromium picolinate]
ADFI (average daily feed intake) (Phase I, 0-7 days): 545 gms
ADG (average daily gain) (Phase I, 0-7 days): 250 gms
Gain/Feed (Phase I, 0-7 days): 0.54
ADFI (average daily feed intake) (Phase II, 8-14 days): 1.43 kg
ADG (average daily gain) (Phase II, 8-14 days): 0.92 kg
Gain/Feed (Phase II, 8-14 days): 0.67
ADFI (average daily feed intake) (Phase III, 15-21 days): 2.61
ADG (average daily gain) (Phase III, 15-21 days): 1.26 kg
Gain/Feed (Phase III, 15-21 days): 0.48
